Test results reported in patent publication US11197857B2, “Combination therapy” (GlaxoSmithKline Intellectual Property Development Limited, priority 2016, dated 2021).

Legend:
CAKI-2 = assay: 6-day growth-death assay (Cell Titer Glo); assay type: cell-based, human; details: CAKI-2, ccRCC
Procedure: (§1) The growth of all cell lines was evaluated over time across a wide range of seeding densities to identify conditions that permitted proliferation throughout the entire 6-day assay. Cells were plated at the optimal seeding density and after overnight incubation, a 20-point 2-fold titration of compound was added and plates were incubated for 6 days. A replicate plate of cells was harvested at the time of compound addition to quantify the starting number of cells (T0). Values obtained after the 6 day treatment were expressed as a function of the T0 value and plotted against compound concentration. The T0 value was normalized to 100% and represents the number of cells at the time of compound addition. The data were fit with a 4 parameter equation to generate a concentration response curve and the growth IC50 (gIC50) was determined. The gIC50 is the midpoint of the ‘growth window’, the difference between the number of cells at the time of compound addition (To) and the number of cells after 6 days (DMSO control). The growth-death assay can be used to quantify the net population change, clearly defining cell death (cytotoxicity) as fewer cells compared to the number at the time of compound addition (To).

769-P = assay: 6-day growth-death assay (Cell Titer Glo); assay type: cell-based, human; details: ccRCC
Procedure: as §1

G-402 = assay: 6-day growth-death assay (Cell Titer Glo); assay type: cell-based, human; details: G-402, Leiomyoblastoma
Procedure: as §1

SW156 = assay: 6-day growth-death assay (Cell Titer Glo); assay type: cell-based, human; details: SW156, ccRCC
Procedure: as §1

A498 = assay: 6-day growth-death assay (Cell Titer Glo); assay type: cell-based, human; details: A498, ccRCC
Procedure: as §1

SK-NEP-1 = assay: 6-day growth-death assay (Cell Titer Glo); assay type: cell-based, human; details: SK-NEP-1, Wilm's
Procedure: as §1

KASUMI-1 = assay: 6-day growth-death assay (Cell Titer Glo); assay type: cell-based, human
Procedure: as §1

ACHN = assay: 6-day growth-death assay (Cell Titer Glo); assay type: cell-based, human
Procedure: as §1

CAKI-1 = assay: 6-day growth-death assay (Cell Titer Glo); assay type: cell-based, human; details: CAKI-1, ccRCC
Procedure: as §1

HL-60 = assay: 6-day growth-death assay (Cell Titer Glo); assay type: cell-based, human
Procedure: as §1

OCI-AML3 = assay: 6-day growth-death assay (Cell Titer Glo); assay type: cell-based, human
Procedure: as §1

MOLM-16 = assay: 6-day growth-death assay (Cell Titer Glo); assay type: cell-based, human; details: MOLM-16, subtype M0
Procedure: as §1

SHI-1 = assay: 6-day growth-death assay (Cell Titer Glo); assay type: cell-based, human; details: SHI-1, subtype M5
Procedure: as §1

TF-1 = assay: 6-day growth-death assay (Cell Titer Glo); assay type: cell-based, human; details: TF-1, subtype M6
Procedure: as §1

SKM-1 = assay: 6-day growth-death assay (Cell Titer Glo); assay type: cell-based, human; details: SKM-1, subtype M5
Procedure: as §1

NOMO-1 = assay: 6-day growth-death assay (Cell Titer Glo); assay type: cell-based, human; details: NOMO-1, subtype M5
Procedure: as §1

MV-4-11 = assay: 6-day growth-death assay (Cell Titer Glo); assay type: cell-based, human; details: MV-4-11, subtype M5
Procedure: as §1

G-401 = assay: 6-day growth-death assay (Cell Titer Glo); assay type: cell-based, human; details: G-401, Wilm's
Procedure: as §1

MOLM-13 = assay: 6-day growth-death assay (Cell Titer Glo); assay type: cell-based, human; details: MOLM-13, subtype M5
Procedure: as §1

786-O = assay: 6-day growth-death assay (Cell Titer Glo); assay type: cell-based, human; details: ccRCC
Procedure: as §1

Colon cancer cell lines = assay: 6-day growth-death assay (Cell Titer Glo); assay type: cell-based, human
Melanoma cell lines = assay: 6-day growth-death assay (Cell Titer Glo); assay type: cell-based, human
rat 14-day MTD = details: […] mg/kg
PRMT5/MEP50 = PRMT5/MEP50 (Homo sapiens, UniProt O14744); assay: PRMT family radioactive assay; assay type: biochemical; details: 60 minute SAM:Enzyme:Compound A preincubation
[1] = test system: panel of 4 ccRCC cell lines
Lymphoma cell lines = assay: 6-day growth-death assay (Cell Titer Glo); assay type: cell-based, human; details: 59 cell lines
[2] = test system: Toledo (human DLBCL) xenograft; assay: Toledo xenograft efficacy
NSCLC cell lines = assay: 6-day growth-death assay (Cell Titer Glo); assay type: cell-based, human; details: 25 cell lines

Sequence of PRMT5/MEP50 (O14744 whole entry): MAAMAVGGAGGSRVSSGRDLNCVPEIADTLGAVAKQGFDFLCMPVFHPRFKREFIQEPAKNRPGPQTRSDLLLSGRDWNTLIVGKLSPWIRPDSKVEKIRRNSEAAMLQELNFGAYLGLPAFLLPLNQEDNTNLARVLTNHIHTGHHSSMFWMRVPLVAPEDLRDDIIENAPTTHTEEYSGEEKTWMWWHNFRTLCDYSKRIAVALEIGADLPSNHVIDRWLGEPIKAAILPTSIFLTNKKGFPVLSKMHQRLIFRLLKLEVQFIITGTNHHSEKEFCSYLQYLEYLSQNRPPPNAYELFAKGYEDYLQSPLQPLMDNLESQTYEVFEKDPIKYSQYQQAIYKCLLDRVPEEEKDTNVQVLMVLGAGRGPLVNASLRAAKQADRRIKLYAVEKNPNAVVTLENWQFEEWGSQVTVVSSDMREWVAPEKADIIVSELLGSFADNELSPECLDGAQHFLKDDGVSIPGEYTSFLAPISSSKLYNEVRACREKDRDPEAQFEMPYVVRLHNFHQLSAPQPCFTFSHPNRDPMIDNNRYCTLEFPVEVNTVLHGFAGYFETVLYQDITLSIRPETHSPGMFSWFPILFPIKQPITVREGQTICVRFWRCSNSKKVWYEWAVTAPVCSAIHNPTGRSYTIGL
Sequence of PRMT5/MEP50 (Q9BQA1 whole entry partner): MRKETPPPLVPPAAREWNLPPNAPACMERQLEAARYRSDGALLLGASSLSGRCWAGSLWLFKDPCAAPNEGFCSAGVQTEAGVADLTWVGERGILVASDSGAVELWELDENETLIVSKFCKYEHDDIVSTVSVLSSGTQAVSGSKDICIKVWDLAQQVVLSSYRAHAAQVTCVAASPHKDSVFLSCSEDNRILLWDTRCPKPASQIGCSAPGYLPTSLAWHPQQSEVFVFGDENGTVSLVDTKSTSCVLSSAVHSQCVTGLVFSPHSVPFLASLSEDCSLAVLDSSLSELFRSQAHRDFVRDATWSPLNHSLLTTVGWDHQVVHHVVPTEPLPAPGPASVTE

Molecule CCOCC1(COCC)CCC(c2n[nH]cc2CN(C)CCNC)CC1 [Compound A] has a Ymin-T0 (CAKI-2) of 169.6, a Ymin-T0 (769-P) of 119.0 and a Ymin-T0 (G-402) of 92.6. It also gave a Ymin-T0 (SW156) of 346.7, a Ymin-T0 (A498) of 313.4 and a Ymin-T0 (SK-NEP-1) of 25.3. For the same molecule, the IC50 (KASUMI-1; Homo sapiens, Kasumi 1, read-out: gIC50) was 360 ± 250 nM, the Ymin-T0 (KASUMI-1; KASUMI-1, subtype M2) was −17.7 and the gIC100 (KASUMI-1; KASUMI-1, subtype M2) was 18.88 ± 10.55 µM. The IC50 (ACHN; Homo sapiens, read-out: gIC50) was 100 ± 50 nM, the Ymin-T0 (ACHN; ccRCC) was 96.5 and the Ymin-T0 (CAKI-1) was 178.7. It also gave a Ymin-T0 (HL-60; HL-60, subtype M3) of −33.4, a gIC100 (HL-60; HL-60, subtype M3) of 6.38 ± 12.83 µM and an IC50 (HL-60; Homo sapiens, HL-60, read-out: gIC50) of 20 ± 10 nM. The IC50 (OCI-AML3; Homo sapiens, OCI-AML-3, read-out: gIC50) was 870 ± 140 nM, the Ymin-T0 (OCI-AML3; OCI-AML3, subtype M4) was 523.2 and the gIC100 (OCI-AML3; OCI-AML3, subtype M4) was 29.33 ± 0.00 µM. For the same molecule, the Ymin-T0 (MOLM-16) was −68.6, the gIC100 (MOLM-16) was 9.69 ± 10.58 µM and the Ymin-T0 (SHI-1) was 292.0. It also gave a gIC100 (SHI-1) of 29.33 ± 0.02 µM, a Ymin-T0 (TF-1) of 788.1 and a gIC100 (TF-1) of 29.33 ± 0.00 µM. The Ymin-T0 (SKM-1) was −19.1, the gIC100 (SKM-1) was 11.61 ± 5.52 µM and the Ymin-T0 (NOMO-1) was 259.1. For the same molecule, the gIC100 (NOMO-1) was 29.33 ± 0.00 µM, the Ymin-T0 (MV-4-11) was 565.6 and the gIC100 (MV-4-11) was 14.55 ± 4.27 µM. It also gave a Ymin-T0 (G-401) of 353.7, a Ymin-T0 (MOLM-13) of −100.0 and a gIC100 (MOLM-13) of 8.64 ± 0.39 µM. For the same molecule, the Ymin-T0 (786-O) was 643.7, the “% Cytotoxic (cell lines with negative Ymin-T0)” value (shortened to “% Cytotoxic”) (Colon cancer cell lines; Colon, 34 cell lines) was 3% and the “% gIC100 < 2 μM (share of cell lines)” value (Colon cancer cell lines; Colon, 34 cell lines) was 0%. For the same molecule, the “Median gIC100” value (Colon cancer cell lines; Colon, 34 cell lines) was 29.33 µM, the IC50 (Colon cancer cell lines; Homo sapiens, read-out: Median gIC50) was 5510 nM and the “% Cytotoxic” value (Melanoma cell lines; Melanoma, 7 cell lines) was 0%. The “% gIC100 < 2 μM (share of cell lines)” value (Melanoma cell lines; Melanoma, 7 cell lines) was 0%, the “Median gIC100” value (Melanoma cell lines; Melanoma, 7 cell lines) was 29.33 µM and the nature of effect (Melanoma cell lines; all melanoma lines) was “cytostatic”. The “Cave (total AUC or exposure) at MTD” value (rat 14-day MTD) was 2100 nM, the inhibition of activity (PRMT5/MEP50) was “failed to inhibit” and the “percent growth inhibition reached” value ([1]; all cell lines evaluated, within 6 days) was 100%. For the same molecule, the “concentration at which caspase cleavage occurred” value ([1]; only at the highest concentration) was 30 µM, the “% Cytotoxic” value (Lymphoma cell lines) was 54% and the “% gIC100 < 2 μM (share of cell lines)” value (Lymphoma cell lines) was 14%. The “Median gIC100” value (Lymphoma cell lines) was 21.62 µM, the “Body weight Difference (vs. vehicle)” value ([2]; 300 mg/kg QD oral, day 28) was −3% and the Regression ([2]; 300 mg/kg QD oral, day 28) was “(37%)”. The “Body weight Difference (vs. vehicle)” value ([2]; 450 mg/kg QD oral, day 28) was −8%, the Regression ([2]; 450 mg/kg QD oral, day 28) was “(58%)” and the “Body weight Difference (vs. vehicle)” value ([2]; 600 mg/kg QD oral, day 28) was −7%. The Regression ([2]; 600 mg/kg QD oral, day 28) was “(62%)”, the “Body weight Difference (vs. vehicle)” value ([2]; […] mg/kg QD oral, day 28) was −4% and the body weight loss ([2]; any dose group, 150-600 mg/kg daily, 28 days) was “no significant body weight loss”. The “doses at which regressions were observed” value ([2]; oral, daily, 28 days) was at least 300 mg/kg, the “Body weight Difference (vs. vehicle)” value ([2]; second study, 37.5 mg/kg QD, day 25) was −5% and the “Body weight Difference (vs. vehicle)” value ([2]; second study, 75 mg/kg BID, day 25) was −4%. For the same molecule, the “Body weight Difference (vs. vehicle)” value ([2]; second study, 75 mg/kg QD, day 25) was −5%, the “Body weight Difference (vs. vehicle)” value ([2]; second study, 150 mg/kg QD, day 25) was −7% and the “% Cytotoxic” value (NSCLC cell lines) was 16%. The “% gIC100 < 2 μM (share of cell lines)” value (NSCLC cell lines) was 0% and the “Median gIC100” value (NSCLC cell lines) was 29.33 µM.
